The results in this text go back to patent US6719996B2, “Galenic composition for low bioavailability medicaments” (Hoffmann-La Roche Inc., priority 2000, dated 2004).

Bounds are passed on as bounds.

The nature of this data set: Solubility in cocoa butter/lecithin mixtures. The class given is physicochemical. As to conditions: oil or lipid.

For `Cc1ccccc1-c1cc(N2CCOCC2)ncc1N(C)C(=O)C(C)(C)c1cc(C(F)(F)F)cc(C(F)(F)F)c1` [2-(3,5-bis-trifluoromethyl-phenyl)-N-methyl-N-(6-morpholin-4-yl-4-o-tolyl-pyridin-3-yl)-isobutyramide], the solubility – broadly, the dissolved amount per volume that the medium holds – was less than 15 mg/mL.
